PubChem BioAssay AID1963974 (Molecular Pharmacology Branch, DTP, NCI, 2024)

System: 648629-189-R-J1-PDC spheroids with HUVEC/MSC, viability
Assay: Anticancer human tumor 648629-189-R-J1-PDC patient-derived bladder carcinoma cell line growth inhibition [PI3K]
Details: for IC50: curve of first compound; for viability, T/C: stronger effect = lower value
In short: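 Tumor cells were combined with HUVEC and MSCs into spheroids, then dosed with PI3K-inhibitor combinations over half-log ranges capped near clinical Cmax or 10 microM.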

[1] = second compound 0.00316 µM, first compound 0.0316 µM
[2] = second compound 0.00316 µM, first compound 0.1 µM
[3] = second compound 0.00316 µM, first compound 0.316 µM
[4] = second compound 0.00316 µM, first compound 1 µM
[5] = second compound 0.00316 µM, first compound 3.16 µM
[6] = second compound 0.00316 µM, first compound 10 µM
[7] = second compound 0.01 µM, first compound 0.0316 µM
[8] = second compound 0.01 µM, first compound 0.1 µM
[9] = second compound 0.01 µM, first compound 0.316 µM
[10] = second compound 0.01 µM, first compound 1 µM
[11] = second compound 0.01 µM, first compound 3.16 µM
[12] = second compound 0.01 µM, first compound 10 µM
[13] = second compound 0.0316 µM, first compound 0.0316 µM
[14] = second compound 0.0316 µM, first compound 0.1 µM
[15] = second compound 0.0316 µM, first compound 0.316 µM
[16] = second compound 0.0316 µM, first compound 1 µM
[17] = second compound 0.0316 µM, first compound 3.16 µM
[18] = second compound 0.0316 µM, first compound 10 µM
[19] = second compound 0.1 µM, first compound 0.0316 µM
[20] = second compound 0.1 µM, first compound 0.1 µM
[21] = second compound 0.1 µM, first compound 0.316 µM
[22] = second compound 0.1 µM, first compound 1 µM
[23] = second compound 0.1 µM, first compound 3.16 µM
[24] = second compound 0.1 µM, first compound 10 µM
[25] = second compound 0.316 µM, first compound 0.0316 µM
[26] = second compound 0.316 µM, first compound 0.1 µM
[27] = second compound 0.316 µM, first compound 0.316 µM
[28] = second compound 0.316 µM, first compound 1 µM
[29] = second compound 0.316 µM, first compound 3.16 µM
[30] = second compound 0.316 µM, first compound 10 µM
[31] = second compound 1 µM, first compound 0.0316 µM
[32] = second compound 1 µM, first compound 0.1 µM
[33] = second compound 1 µM, first compound 0.316 µM
[34] = second compound 1 µM, first compound 1 µM
[35] = second compound 1 µM, first compound 3.16 µM
[36] = second compound 1 µM, first compound 10 µM
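Further: spheroids exposed to agents for seven days before reading.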
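Wherever viability, T/C is given: percent of vehicle control luminescence where 100% = DMSO treated spheroids.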

With `CC(Cn1ccc(-c2ccc(C#N)c(Cl)c2)n1)NC(=O)c1cc(C(C)O)[nH]n1` (stereo unspecified) + COc1c(OCCCN2CCOCC2)ccc2c3n(c(=NC(=O)c4cnc(N)nc4)nc12)CCN3 the IC50 (second compound 0.00316 µM) was > 10000 nM, the IC50 (second compound 0.01 µM) was > 10000 nM and the IC50 (second compound 0.0316 µM) was > 10000 nM. The IC50 (second compound 0.1 µM) was > 10000 nM, the IC50 (second compound 0.316 µM) was < 31.6 nM and the IC50 (second compound 1 µM) was < 31.6 nM. For the same molecule, the viability, T/C [1] was 94.9%, the viability, T/C [2] was 92.4% and the viability, T/C [3] was 97.9%. For the same molecule, the viability, T/C [4] was 96.4%, the viability, T/C [5] was 83.8% and the viability, T/C [6] was 73.9%. The viability, T/C [7] was 100%, the viability, T/C [8] was 105% and the viability, T/C [9] was 102%. It also gave a viability, T/C [10] of 92.7%, a viability, T/C [11] of 89.1% and a viability, T/C [12] of 74.3%. It also gave a viability, T/C [13] of 96.5%, a viability, T/C [14] of 93.5% and a viability, T/C [15] of 95.8%. For the same molecule, the viability, T/C [16] was 90.4%, the viability, T/C [17] was 86.5% and the viability, T/C [18] was 70.8%. For the same molecule, the viability, T/C [19] was 65.9%, the viability, T/C [20] was 64.1% and the viability, T/C [21] was 77.5%. It also gave a viability, T/C [22] of 65.5%, a viability, T/C [23] of 64% and a viability, T/C [24] of 61.5%. The viability, T/C [25] was 23%, the viability, T/C [26] was 18.7% and the viability, T/C [27] was 22.9%. For the same molecule, the viability, T/C [28] was 23.2%, the viability, T/C [29] was 26.4% and the viability, T/C [30] was 21.3%. The viability, T/C [31] was 3.56%, the viability, T/C [32] was 3.29% and the viability, T/C [33] was 3.07%. The viability, T/C [34] was 3.97%, the viability, T/C [35] was 4.94% and the viability, T/C [36] was 2.75%.

For `CC1(C)CCC(Nc2ncc(C(F)(F)F)c(-c3c[nH]c4c(P(C)(C)=O)c(C#N)ccc34)n2)CN1` (stereo unspecified) + COc1c(OCCCN2CCOCC2)ccc2c3n(c(=NC(=O)c4cnc(N)nc4)nc12)CCN3, the IC50 (second compound 0.00316 µM) was < 31.6 nM, the IC50 (second compound 0.01 µM) was < 31.6 nM and the IC50 (second compound 0.0316 µM) was < 31.6 nM. For the same molecule, the IC50 (second compound 0.1 µM) was < 31.6 nM, the IC50 (second compound 0.316 µM) was < 31.6 nM and the IC50 (second compound 1 µM) was < 31.6 nM. For the same molecule, the viability, T/C [1] was 25.2%, the viability, T/C [2] was 25.7% and the viability, T/C [3] was 31.6%. It also gave a viability, T/C [4] of 31.4%, a viability, T/C [5] of 41.1% and a viability, T/C [6] of 4.79%. The viability, T/C [7] was 28.9%, the viability, T/C [8] was 25.2% and the viability, T/C [9] was 25.1%. It also gave a viability, T/C [10] of 30.8%, a viability, T/C [11] of 35.1% and a viability, T/C [12] of 3.26%. The viability, T/C [13] was 26.3%, the viability, T/C [14] was 23.6% and the viability, T/C [15] was 26.5%. The viability, T/C [16] was 27.7%, the viability, T/C [17] was 31% and the viability, T/C [18] was 9.93%. For the same molecule, the viability, T/C [19] was 22%, the viability, T/C [20] was 22.2% and the viability, T/C [21] was 19.9%. The viability, T/C [22] was 21.8%, the viability, T/C [23] was 21% and the viability, T/C [24] was 1.86%. For the same molecule, the viability, T/C [25] was 15.5%, the viability, T/C [26] was 13.7% and the viability, T/C [27] was 13.2%. It also gave a viability, T/C [28] of 16.3%, a viability, T/C [29] of 12.5% and a viability, T/C [30] of 1.02%. The viability, T/C [31] was 6.13%, the viability, T/C [32] was 5.76% and the viability, T/C [33] was 6.72%. For the same molecule, the viability, T/C [34] was 8.34%, the viability, T/C [35] was 7.64% and the viability, T/C [36] was 1.32%.

`Cn1nccc1Nc1nccc(-c2ccn(C(CO)c3ccc(Cl)c(F)c3)c(=O)c2)n1` (stereo unspecified) + COc1c(OCCCN2CCOCC2)ccc2c3n(c(=NC(=O)c4cnc(N)nc4)nc12)CCN3 was tested, and the IC50 (second compound 0.00316 µM) was > 10000 nM, the IC50 (second compound 0.01 µM) was > 10000 nM and the IC50 (second compound 0.0316 µM) was > 10000 nM. The IC50 (second compound 0.1 µM) was > 10000 nM, the IC50 (second compound 0.316 µM) was < 31.6 nM and the IC50 (second compound 1 µM) was < 31.6 nM. For the same molecule, the viability, T/C [1] was 103%, the viability, T/C [2] was 92.3% and the viability, T/C [3] was 106%. For the same molecule, the viability, T/C [4] was 103%, the viability, T/C [5] was 98% and the viability, T/C [6] was 79.2%. For the same molecule, the viability, T/C [7] was 113%, the viability, T/C [8] was 96.8% and the viability, T/C [9] was 104%. For the same molecule, the viability, T/C [10] was 111%, the viability, T/C [11] was 107% and the viability, T/C [12] was 79.4%. For the same molecule, the viability, T/C [13] was 90.9%, the viability, T/C [14] was 91.4% and the viability, T/C [15] was 86.3%. The viability, T/C [16] was 110%, the viability, T/C [17] was 102% and the viability, T/C [18] was 79.2%. For the same molecule, the viability, T/C [19] was 70.1%, the viability, T/C [20] was 65.7% and the viability, T/C [21] was 64.2%. The viability, T/C [22] was 83%, the viability, T/C [23] was 83.3% and the viability, T/C [24] was 68.8%. It also gave a viability, T/C [25] of 20.6%, a viability, T/C [26] of 21.1% and a viability, T/C [27] of 26.9%. It also gave a viability, T/C [28] of 28.3%, a viability, T/C [29] of 48.6% and a viability, T/C [30] of 44.5%. The viability, T/C [31] was 3.68%, the viability, T/C [32] was 3.03% and the viability, T/C [33] was 3.39%. The viability, T/C [34] was 3.34%, the viability, T/C [35] was 8.78% and the viability, T/C [36] was 9.04%.
